Data from patent publication US20060241114A1, “Derivatives of azasugars as anticancer agents” (priority 2003, published 2006).

Assays:
LOX (melanoma) = experiment: In vitro growth inhibition screen (sulphorhodamine B), LOX; format: cell-based, human; conditions: LOX cells, incubated for 48 hours, sulphorhodamine B dye; read-out: GI50 (concentration which inhibits the cell growth by 50%), LOX Melanoma
Summary of the method: (§1)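 GI50 values come from a 48 h sulphorhodamine B growth assay in RPMI 1640 containing 10% fetal calf serum, with test concentrations spanning ten-fold dilutions from ≧100 μM to 10 nM. Doxorubicin served as positive control.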

[1] = system: HT29 (colorectal adenocarcinoma); experiment: In vitro growth inhibition screen (sulphorhodamine B), HT29; format: cell-based, human; conditions: HT29 cells, incubated for 48 hours, sulphorhodamine B dye; read-out: GI50 (concentration which inhibits the cell growth by 50%), HT29 Colorectal adenocarcinoma
Summary of the method: as §1

[2] = system: MCF7ADR (adriamycin resistant breast adenocarcinoma); experiment: In vitro growth inhibition screen (sulphorhodamine B), MCF7ADR; format: cell-based, human; conditions: MCF7ADR cells, incubated for 48 hours, sulphorhodamine B dye; read-out: GI50 (concentration which inhibits the cell growth by 50%), MCF7ADR Adriamycin Resistant Breast adenocarcinoma
Summary of the method: as §1

[3] = system: U251 (human glioblastoma); experiment: In vitro growth inhibition screen (sulphorhodamine B), U251; format: cell-based; conditions: U251 cells, incubated for 48 hours, sulphorhodamine B dye; read-out: GI50 (concentration which inhibits the cell growth by 50%), U251 Human glioblastoma astrocytoma
Summary of the method: as §1

[4] = system: MCF7 (breast adenocarcinoma); experiment: In vitro growth inhibition screen (sulphorhodamine B), MCF7; format: cell-based, human; conditions: MCF7 cells, incubated for 48 hours, sulphorhodamine B dye; read-out: GI50 (concentration which inhibits the cell growth by 50%), MCF7 Breast adenocarcinoma
Summary of the method: as §1

[5] = system: DU145 (prostate carcinoma); experiment: In vitro growth inhibition screen (sulphorhodamine B), DU145; format: cell-based, human; conditions: DU145 cells, incubated for 48 hours, sulphorhodamine B dye; read-out: GI50 (concentration which inhibits the cell growth by 50%), DU145 Prostate carcinoma
Summary of the method: as §1

Compound | GI50 (LOX (melanoma)) [µM] | GI50 [1] [µM] | GI50 [2] [µM] | GI50 [3] [µM] | GI50 [4] [µM] | GI50 [5] [µM]
CCCN1C(=O)C(OCc2ccccc2)C(OCc2ccccc2)C(OCc2ccccc2)C1CNC(=O)CN1CCN(C)CC1 [Compound No. 59, 2,3,4-Tri-O-benzyl-6-N-{2-[N-(methyl)piperazin-1-yl]acetyl}-N-propyl-D-gluco-δ-lactam] | 3.8 | 1.9 | 25.3 | 12.6 | 8.1 | 12.2
CCCN1C(=O)[C@H](OCc2ccccc2)[C@@H](OCc2ccccc2)[C@H](OCc2ccccc2)[C@H]1CNC(=O)Cn1ncn(-c2ccc(N3CCN(c4ccc(Cl)cc4)CC3)cc2)c1=O [Compound No. 60, 2,3,4-Tri-O-benzyl-6-N-{2-[(4-(4-(chlorophenyl)-piperazin-1-yl)-phenyl)-3(2H,4H)-1,2,4-triazol-3-onyl]acetyl}-H-propyl-D-gluco-δ-lactam] | 158 | 258 | 281 | 190 | 101 | 108
CCCN1C(=O)[C@H](OCc2ccccc2)[C@@H](OCc2ccccc2)[C@H](OCc2ccccc2)[C@H]1CNC(=O)CN1C[C@H](OCc2ccccc2)[C@@H](OCc2ccccc2)[C@H](OCc2ccccc2)[C@H]1COCc1ccccc1 [Compound No. 61, 2,3,4-Tri-O-benzyl-6-N-{2-[2,3,4,6-tetra-O-benzyl-1,5-dideoxy-1,5-imino-glucitolyl]acetyl}-N-propyl-D-gluco-δ-lactam] | > 618 | > 618 | > 618 | > 618 | > 618 | 195
CCCN1C(=O)[C@H](OCc2ccccc2)[C@@H](OCc2ccccc2)[C@H](OCc2ccccc2)[C@H]1CNC(=O)CN1CCN(c2c(CC)cccc2CC)CC1 [Compound No. 62, 2,3,4-Tri-O-benzyl-6-N-{2-[N-(2,6-diethylphenyl)piperazinyl]acetyl}-N-propyl-D-gluco-δ-lactam] | 37.7 | 24.9 | > 402 | 30 | > 402 | 24.3
CCCN1C(=O)[C@H](OCc2ccccc2)[C@@H](OCc2ccccc2)[C@H](OCc2ccccc2)[C@H]1CNC(=O)CN1C(=O)c2ccccc2C1=O [Compound No. 63] | 55.3 | 42 | 246 | 117 | 66.8 | 60.6
CCCN1C(=O)[C@H](OCc2ccccc2)[C@@H](OCc2ccccc2)[C@H](OCc2ccccc2)[C@H]1CNC(=O)CN1CCN(c2ccc(Cl)cc2)CC1 [Compound No. 64, 2,3,4-Tri-O-benzyl-6-N-{2-[4-(4-chlorophenyl)piperazinyl]acetyl}-N-propyl-D-gluco-δ-lactam] | 6.3 | 8.1 | 4.3 | 3.7 | 1.5 | 12.5
CCCN1C(=O)[C@H](OCc2ccccc2)[C@@H](OCc2ccccc2)[C@H](OCc2ccccc2)[C@H]1CNC(=O)CN1CCN(c2cccc(C(F)(F)F)c2)CC1 [Compound No. 65, 2,3,4-Tri-O-benzyl-6-N-{2-[4-(3-(trifluoromethyl)phenyl)piperazin-1-yl]acetyl}-N-propyl-D-gluco-δ-lactam] | 4 | 5.6 | 3.5 | 3.4 | 2 | 13.1
CCCN1C(=O)[C@H](O)[C@@H](O)[C@H](O)[C@H]1CNC(=O)Cn1cncn1 [Compound No. 66, N-Propyl-6-{2-[triazolyl]-acetyl}-D-gluco-δ-lactam] | 58.2 | 149 | 196 | 142 | 124 | 82.9
CCCN1C(=O)[C@H](O)[C@@H](O)[C@H](O)[C@H]1CNC(=O)CN1CCN(C)CC1 [Compound No. 68, 6-N-{2-[(N-Methyl)piperazinyl]acetyl}-N-propyl-D-gluco-δ-lactam] | 48.2 | 14.1 | 27.7 | 22 | 32.4 | 39
C=CCN1C(=O)[C@H](OCc2ccccc2)[C@@H](OCc2ccccc2)[C@H](OCc2ccccc2)[C@H]1Cn1ccnn1 [Compound No. 69, N-Allyl-2,3,4-tri-O-benzyl-6-triazolyl-D-gluco-δ-lactam] | 47.4 | 31.6 | 39.4 | 37.9 | 47.8 | 51
CCCN1C(=O)[C@H](O)[C@@H](O)[C@H](O)[C@H]1Cn1cncn1 [Compound No. 70, 6-Triazolyl-N-propyl-D-gluco-δ-lactam] | 232 | 302 | 894 | 516 | 340 | 252
O[C@H]1[C@H](O)[C@@H](Cn2cncn2)NC[C@@H]1O [Compound No. 72, 1,5-Dideoxy-1,5-imino-6-triazolyl-glucitol] | 146 | 244 | 275 | 282 | 208 | 340
CCCN1C[C@H](O)[C@@H](O)[C@H](O)[C@H]1Cn1ccnn1 [Compound No. 73, 1,5-Dideoxy-1,5-imino-N-propyl-6-triazolyl glucitol] | 247 | 470 | 291 | 506 | 320 | 267
CCCN1C(=O)[C@H](OCc2ccccc2)[C@@H](OCc2ccccc2)[C@H](OCc2ccccc2)[C@H]1CNC(=O)Oc1ccccc1 [Compound No. 74, 2,3,4-Tri-O-benzyl-6-N-[phenyl carbamate]-N-propyl-D-gluco-δ-lactam] | 51.8 | 10.7 | 26.1 | 34.2 | 25.4 | 90.9
CCCN1C(=O)[C@H](OCc2ccccc2)[C@@H](OCc2ccccc2)[C@H](OCc2ccccc2)[C@H]1CNC(=O)N1CCN(c2ccc(Cl)cc2)CC1 [Compound No. 75, 2,3,4-Tri-O-benzyl-6-N-{4-[4-chlorophenyl]piperazinylcarboxamido}-N-propyl-D-gluco-δ-lactam] | 16.9 | 18.4 | 11.6 | 8.8 | 1.6 | 25.7
CCCN1C(=O)[C@H](OCc2ccccc2)[C@@H](OCc2ccccc2)[C@H](OCc2ccccc2)[C@H]1CNC(=O)N1CCN(c2ccc(F)cc2)CC1 [Compound No. 76, 2,3,4-Tri-O-benzyl-6-N-{4-[4-fluorophenyl]piperazinylcarboxamido}-N-propyl-D-gluco-δ-lactam] | 40.9 | 28.6 | 90.7 | 25.7 | 38.6 | 45.2
CCCN1C(=O)[C@H](OCc2ccccc2)[C@@H](OCc2ccccc2)[C@H](OCc2ccccc2)[C@H]1CNC(=O)N1CCc2ccccc21 [Compound No. 77, 2,3,4-Tri-O-benzyl-6-N-{1,2-dihydro(2H)-indolylcarboxamido}-N-propyl-D-gluco-δ-lactam] | 29.5 | 17.5 | 69.1 | 28.6 | 56.1 | 49.4
CCCN1C(=O)[C@H](OCc2ccccc2)[C@@H](OCc2ccccc2)[C@H](OCc2ccccc2)[C@H]1CNC(=O)N1CC2C(C1)C2NC(C)=O (stereo partly drawn) [Compound No. 79, 2,3,4-Tri-O-benzyl-6-N-{(1α,5α,6α)-6-acetylamino-azabicyclo[3.1.0]hexylcarboxamido}-N-propyl-D-gluco-δ-lactam] | 7.4 | 21.8 | 17.9 | 15.5 | 18.2 | 18.9
C=CCN1C(=O)C(OCc2ccccc2)C(OCc2ccccc2)C(OCc2ccccc2)C1Cn1ncn(-c2ccc(Cl)cc2)c1=O [Compound No. 81, 2,3,4-Tri-O-benzyl-6-[4-chlorophenyl-3(2H,4H)-1,2,4-triazol-3-onyl]-N-allyl-D-gluco-δ-lactam] | 11.9 | 49.5 | 77 | > 250 | 102 | 70.1
C=CCN1C(=O)C(OCc2ccccc2)C(OCc2ccccc2)C(OCc2ccccc2)C1CN1C(=O)CCCC1=O [Compound No. 82, N-Allyl-2,3,4-tri-O-benzyl-6-(2,6-diketopiperidino)-D-gluco-δ-lactam] | 8.5 | 23.5 | 17.5 | 12.5 | 9.9 | 24.8
C=CCN1C(=O)[C@H](OCc2ccccc2)[C@@H](OCc2ccccc2)[C@H](OCc2ccccc2)[C@H]1CN1C(=O)c2ccccc2C1=O [Compound No. 83, N-Allyl-2,3,4-tri-O-benzyl-6-(1H-isoindole-1,3(2H)-diketo)-D-gluco-δ-lactam] | 51.4 | 80.1 | 6.7 | > 140 | 13.1 | 55.2
